Results taken from patent US20110034385A1, “Compositions Useful for the Treatment of Diabetes and Other Chronic Disorder” (NATIONAL INSTITUTE OF IMMUNOLOGY, priority 2008, published 2011).
Each block holds one compound with its values, some of them ahead of it.

Legend:
[1] = test system: rats with kaolin/carrageenan (KC) arthritis; test: Hot plate test in kaolin/carrageenan arthritis; assay type: in vivo, rat
Experimental: Male wistar rats, weighing 180-220 g were selected and fed ad libitum. After four days of acclimatization, the rats were divided into five groups. Group I—control, Group II—Ibuprofen (10 mg/kg b.wt.), Group III—Ibuprofen (50 mg/kg b.wt.), Group IV—Ibuprofen coupled to transthyretin (TTR) or GNNQQNY injected intraperitoneally and Group V—carrageenin control. Groups II-V was anesthetized with halothane and KC arthritis was induced by an intra-articular injection of a mixture of 3% kaolin and 3% carrageenan (0.1 ml in sterile saline) into the synovial cavity of right knee joint. The joint was then manipulated by rapid flexion and extension movements for 1 min. Half an hour after injection of kaolin/carrageenan, the animals were treated as indicated above, with group II and II receiving daily injections of Ibuprofen orally. In the hot plate test method, rats from each group were placed on an analgesiometer, at a temperature of 55° C., and the latency in licking their paw was determined with a stop watch, one hour after treatment on day one (FIG. 32a), and thereafter everyday for four days (FIG. 32b). A 90-s cut-off time was imposed to prevent tissue damage.

[2] = test system: ovariectomized (OVX) rats; conditions: rat, in vivo
Experimental: 44 female Sprague-Dawley rats (Charles River Laboratory, Wilmington, Mass.), approximately 90 days of age with an average body weight of 230 g were grouped into four groups at the beginning of the study. All rats were anesthetized with an intraperitoneal injection of ketamine hydrochloride and xylazine at doses of 50 and 10 mg/kg body weight (BW), respectively. Bilateral ovariectomies were performed in three groups from a dorsal approach. All rats were housed individually at 25° C. with a 12 h light/12 h dark cycle. The food consumption of ovariectomized (OVX) rats was restricted to that of the control rats to minimize increase in the body weight associated with ovariectomy. All rats were treated for 8 weeks with vehicle or Human/salmon CT (Sigma) either intermittently by subcutaneous injection or continuously by Alzet osmotic minipumps (Model 2ML4; Alza Corp., Palo Alto, Calif.) containing 200 μl of either CT (4 μg/kg) or SCA (Supramolecular calcitonin assembly) (2 mg/ml) in 2% mannitol, designed to deliver the solutions at a constant rate of 2.5 μl/h for 28 days. The intermittent treatments started a day after surgery. The minipumps for continuous CT or Calcitonin SCA or vehicle treatments were implanted at the time of surgery (day 0) and replaced after 3 weeks in case of continuous CT and vehicle treatment. […] For subcutaneous injections of CT, the hormone was dissolved in a vehicle of 2% mannitol.
Half of the OVX rats from this group were injected subcutaneously on alternate days with 2% mannitol as a vehicle. The remaining OVX rats in this group were implanted subcutaneously with Alzet osmotic minipumps for continuous infusion of vehicle.
Each OVX rat of one group was injected subcutaneously on alternate days with salmon CT at a dose of 16 U/kg BW (4 μg/kg b wt), and the other was implanted subcutaneously with an Alzet osmotic minipump for continuous infusion of human CT. The daily dose delivered to each rat by the minipump was 8 U/kg BW (2 μg/kg BW), which was equivalent to the dose given to the preceding group through subcutaneous injections on alternate days (16 U/kg).
Serum samples were stored at −80° C. until analyzed for their CT concentration by immunoassay methods with a commercially available kit (Bio-Merica). […] Calcitonin in serum was measured by an immunoassay kit.
Data are expressed as the mean±standard deviation (SD) for each group. Statistical differences were evaluated by analysis of variance. P values<0.05 were considered to be significant.

MCF 7 cells = test: MTT cell proliferation assay; assay type: cell-based; conditions: 3 days after treatment
Experimental: Cells were plated in 24-well plates with 10,000 cells/well in regular DMEM media containing 10% FBS. All treatments were done in triplicates. Growth was measured 3 days after treatment. Growth was assayed by the MTT assay. A total of 50 μl of 5 mg/ml MTT solution in PBS was added to each well. After incubation for 4 h at 37° C., formazan crystals were lysed with 500 μl of solubilization solution (20% SDS, 50% DMSO). Absorbance was measured with a plate reader at 570 nm using a 670-nm differential filter.

[3] = test system: STZ-induced diabetic rats; test: Clinical parameters for the evaluation of toxicity of SIA II; assay type: in vivo, rat; conditions: end of three month study
From the text: Serum isolated from blood samples collected at the end of the three month study and subjected to various tests indicated in the Table. Results are mean±s.d. of three different experiments having n=4 animals in each group.

[4] = test system: STZ-induced diabetic rats; test: Blood glucose control in streptozotocin-induced diabetic rats; assay type: in vivo, rat
Experimental: Nine weeks old Male Wistar rats (Rattus norvegicus albinus, Rodentia mammalia) weighing 210±10 g were used. Rats were housed in commercially available polypropylene cages and maintained under controlled temperature conditions on a 12 h light-dark cycle and allowed to access food and water ad libitum.
Male Wistar Rats weighing 250-300 g were divided into four groups and blood glucose estimation was done using Roche Accu Check glucose strips. Rats were kept on fasting for 48 hours. 50 mg/kg b.wt of Streptozotocin prepared freshly in citrate buffer (pH 4.5) was administered intraperitoneally to 10-20 rats. Food was provided immediately and blood glucose levels were checked after three days. The animals were grouped according to their blood glucose level (group I: 250-350 mg/dl, group II: 350-450 mg/dl and group III: >450 mg/dL).
A group of 5 normal rats injected 100 μl of PBS, served as the non-diabetic control. Body weight and blood glucose levels, both pre-prandial after 8-10 hr fasting and post-prandial were checked initially daily and then with decreasing frequency.

[5] = Serum insulin quantification by ELISA; conditions: in 30 min
Experimental: Serum was isolated from the blood samples collected and stored at −20° C. till further analysis.

[6] = test system: STZ-induced diabetic rats; test: Clinical parameters for the evaluation of toxicity of SIA II; assay type: in vivo, rat
STZ treated rats = test: Intraperitoneal glucose tolerance test (IPGTT); assay type: in vivo, rat
Experimental: The STZ treated (n=12) and normal rats (n=4) were kept on fasting for 12 hrs. Blood glucose levels were monitored as described above. For glucose tolerance test was done. […] Blood glucose levels were monitored at 0, 30, 90, 150, 270 and 330 min after treatment. Serum was isolated for various time points and a graph was plotted between blood glucose level and time. FIG. 12 provides blood glucose profile of Intraperitoneal Glucose Tolerance Test (IPGTT).

Male wistar rats = test: Hyperglycemic clamp after treatment with SIA II; assay type: in vivo, rat; conditions: one week, one month and three month
Experimental: Male wistar rats were anesthetized (Isoflurane 2%) and a carotid and jugular catheter installed to allow blood withdrawal and glucose injections (20% glucose solution) to clamp blood glucose level at 600 mg/dL. Following a 12 hours fasting period, glucose was infused in all groups to make them hyperglycemic. This was followed by blood withdrawal at indicated time intervals, for blood glucose measurements and the rate of glucose infusion to retain them hyperglycemic were calculated. This procedure was repeated after one and three months of SIA II administration (FIG. 16 a-c).

[7] = test system: insulin signaling cascade (PI3K, Akt, GSK3β, ERK1/2) in rat adipocytes; test: Western blot of insulin signaling cascade in cultured adipocytes; assay type: cell-based; conditions: compared to control
Experimental: Rat adipocytes were isolated and cultured according to the method described by Björntorp et al. (Björntorp, P., Karlsson, M., Pettersson, P. & Sypniewska, G. Differentiation and function of rat adipocyte precursor cells in primary culture. J. Lipid Res. 21, 714-723 (1987)). Male Wistar rats fed freely were sacrificed and epididymal fat tissue was dissected and collected in reagent A (HBSS, 100 U/ml penicillin, 100 μg/ml streptomycin and […] gentamycin). The tissue was washed properly in HBSS. Following this the tissue was cut and minced finely and transferred to a falcon, centrifuged at 200 g for 2 min. The layer of transparent oil was removed and the adipocyte cell layer (thick and dense) was added to three times the volume of reagent B (reagent A containing 0.1% BSA and 1 mg/ml Collagenase) in a flask. The flask was incubated at 37° C. for 60 min with continuous slow shaking. The reaction was stopped by addition of DMEM complete media (with HEPES 15 mM, glc, 0.1% BSA, 50 nM adenosine and 1% fetal bovine serum) three times the volume and incubated at room temperature for 5 min. […]
After incubation, the cells were collected in a falcon tube and centrifuged at 200 g for 10 min. […] Adipocytes treated with (a) PBS, insulin, SIA-II, insulin released from SIA-II, (b) serum as indicated, and analysed for insulin signaling.

[8] = test system: fat-fed/streptozotocin-diabetic rats; test: Type II diabetes model, fat-fed/streptozotocin-diabetic rats; assay type: in vivo, rat
Experimental: Male Wistar rats, 7 weeks of age, and weighing approximately 200 g, were used for all studies. […] After 2 weeks on either diet, animals (with the exception of non-injected controls) after an overnight fast were injected with STZ (50 mg/kg) into the tail vein via a temporary indwelling 24-gauge catheter. Animals had free access to food and water after the STZ injection, and both STZ-injected and non-injected animals were continued on their original diets (chow or fat) for the duration of the study.

[9] = insulin: single dose of 4 IU/kg daily, SIA: single injection 200 μg

Compound: CC(C)Cc1ccc(C(C)C(=O)O)cc1 (stereo not drawn) [Ibuprofen]
latency in licking paw (heat endured) ([1]; 10 mg/kg b.wt orally): up to 12 sec
latency in licking paw (heat endured) ([1]; 50 mg/kg b.wt orally): ≤ 17 s

Calcitonin (serum) [2]: 19.1 ± 4.2
antibody against salmon calcitonin [2]: negligible
serum levels of calcitonin [2]: 19 pg/mL
time depot keeps on releasing calcitonin [2]: 6-8 weeks
time serum calcitonin maintained at a higher level [2]: up to 60 days
Compound: CC(C)C[C@H](NC(=O)[C@H](CCCCN)NC(=O)CNC(=O)[C@H](CC(C)C)NC(=O)[C@@H](NC(=O)[C@@H]1CSSC[C@H](N)C(=O)N[C@@H](CO)C(=O)N[C@@H](CC(N)=O)C(=O)N[C@@H](CC(C)C)C(=O)N[C@@H](CO)C(=O)N[C@@H]([C@@H](C)O)C(=O)N1)C(C)C)C(=O)N[C@@H](CO)C(=O)N[C@@H](CCC(N)=O)C(=O)N[C@@H](CCC(=O)O)C(=O)N[C@@H](CC(C)C)C(=O)N[C@@H](Cc1c[nH]cn1)C(=O)N[C@@H](CCCCN)C(=O)N[C@@H](CC(C)C)C(=O)N[C@@H](CCC(N)=O)C(=O)N[C@H](C(=O)N[C@@H](Cc1ccc(O)cc1)C(=O)N1CCC[C@H]1C(=O)N[C@@H](CCCNC(=N)N)C(=O)N[C@H](C(=O)N[C@@H](CC(N)=O)C(=O)N[C@H](C(=O)NCC(=O)N[C@@H](CO)C(=O)NCC(=O)N[C@H](C(=O)N1CCC[C@H]1C(N)=O)[C@@H](C)O)[C@@H](C)O)[C@@H](C)O)[C@@H](C)O [SCA]

Compound: IGF 1: Insulin like growth factor I, positive control for proliferation of MCF 7 cells
proliferation of MCF 7 cells (MCF 7 cells): mitogenic

Compound: Insulin: free, non-supramolecularly organized insulin; bovine insulin 4 U/kg intraperitoneally
Alkaline Phosphatase ([3]; Single daily Insulin Injection): 777.8 ± 89.4 U/L
Bilirubin (Direct) ([3]; Single daily Insulin Injection): 0.36 ± 0.08 mg/dL
Bilirubin (Total) ([3]; Single daily Insulin Injection): 0.40 ± 0.08 mg/dL
Chloride ([3]; Single daily Insulin Injection): 165 ± 23 mEq/L
Phosphorous ([3]; Single daily Insulin Injection): 6.5 ± 1.3 mEq/L
SGOT ([3]; Single daily Insulin Injection): 355 ± 83 U/L
SGPT ([3]; Single daily Insulin Injection): 86 ± 36 U/L
Serum A/G ratio ([3]; Single daily Insulin Injection): 0.595
Serum Albumin ([3]; Single daily Insulin Injection): 2.5 ± 0.21 g/dL
Serum Creatinine ([3]; Single daily Insulin Injection): 1.01 ± 0.30 mg/dL
Serum Globulin ([3]; Single daily Insulin Injection): 4.2 ± 0.18 g/dL
Serum total proteins ([3]; Single daily Insulin Injection): 6.70 ± 0.21 g/dL
Sodium ([3]; Single daily Insulin Injection): 200 ± 26 mEq/L
Urea ([3]; Single daily Insulin Injection): 58.3 ± 9.2 mg/dL
Uric Acid ([3]; Single daily Insulin Injection): 3.0 ± 0.81
Adipose Tissue ([3]; Twice daily Insulin Injection): Decreased
Alkaline Phosphatase ([3]; Twice daily Insulin Injection): 489 ± 65 U/L
Bilirubin (Direct) ([3]; Twice daily Insulin Injection): 0.25 ± 0.06 mg/dL
Bilirubin (Total) ([3]; Twice daily Insulin Injection): 0.35 ± 0.1 mg/dL
Chloride ([3]; Twice daily Insulin Injection): 119 ± 26 mEq/L
Phosphorous ([3]; Twice daily Insulin Injection): 6.2 ± 0.95 mEq/L
SGOT ([3]; Twice daily Insulin Injection): 300 ± 56 U/L
SGPT ([3]; Twice daily Insulin Injection): 85 ± 15 U/L
Serum A/G ratio ([3]; Twice daily Insulin Injection): 0.955
Serum Albumin ([3]; Twice daily Insulin Injection): 3.2 ± 0.19 g/dL
Serum Creatinine ([3]; Twice daily Insulin Injection): 0.88 ± 0.21 mg/dL
Serum Globulin ([3]; Twice daily Insulin Injection): 3.35 ± 0.15 g/dL
Serum total proteins ([3]; Twice daily Insulin Injection): 5.55 ± 0.25 g/dL
Sodium ([3]; Twice daily Insulin Injection): 198 ± 45.5 mEq/L
Urea ([3]; Twice daily Insulin Injection): 60.1 ± 12.36 mg/dL
Uric Acid ([3]; Twice daily Insulin Injection): 3.1 ± 0.56
blood glucose levels ([4]; insulin intraperitoneally everyday): 300 ± 100 mg/dL
fasting blood glucose [4, 9]: 300 to 400 mg/dL
non-fasting blood glucose [4, 9]: 350 to 450 mg/dL
duration of action ([4]; standard insulin injection): 6 to 10 h
serum bovine insulin in IPGTT [5]: ~0.9 ng/mL
Adipose Tissue ([6]; Single daily Insulin Injection, end of three month study): Decreased
cataract formation ([6]; diabetic rats): Development of cataract
time for elevated blood glucose to return to pre challenged levels (STZ treated rats; after glucose infusion 3 g/kg IP): ≤ 1.5 h
onset of effect in IPGTT (STZ treated rats; severe hyperglycemia): ≤ 30 min
proliferation of MCF 7 cells (MCF 7 cells): does not cause proliferation of cells
rate of glucose infused for maintaining hyperglycemic state (Male wistar rats): decreases over time
activation of ERK 1/2 [7]: significant activation
phosphorylation of GSK3β [7]: increased several fold
B W ([8]; 1 week): 261
BGL ([8]; 1 week): 420 mg/dL
FFA ([8]; 1 week): 1.9 ± 0.08 mmol/L
Rat Insulin ([8]; 1 week): 37.09 ± 4.7 μU/ml
TG ([8]; 1 week): 0.77 ± 0.05 mmol/L
B W ([8]; 2 week): 263
BGL ([8]; 2 week): 401 mg/dL
FFA ([8]; 2 week): 2.1 ± 0.08 mmol/L
Rat Insulin ([8]; 2 week): 37.09 ± 4.7 μU/ml
TG ([8]; 2 week): 0.75 ± 0.05 mmol/L
B W ([8]; 3 week): 269
BGL ([8]; 3 week): 390 mg/dL
FFA ([8]; 3 week): 1.8 ± 0.08 mmol/L
Rat Insulin ([8]; 3 week): 37.09 ± 4.7 μU/ml
TG ([8]; 3 week): 0.73 ± 0.05 mmol/L
BGL ([8]; 4 week): 396 mg/dL
FFA ([8]; 4 week): 2.1 ± 0.08 mmol/L
Rat Insulin ([8]; 4 week): 37.09 ± 4.7 μU/ml
TG ([8]; 4 week): 0.76 ± 0.05 mmol/L
increase of TAGs and FFA levels in serum ([8]; serum): up to 1.5 fold
